According to patent US8178077B2, “Drug development target protein and target gene, and method of screening” (Reverse Proteomics Research Institute Co., Ltd., priority 2004, dated 2012):
Structures can show the parent of a compound that is named as a salt. Each block holds one compound with its values, some of them ahead of it.

Biological target: T1, FLJ39196 clone-derived protein (human neurocalcin δ) (Homo sapiens, UniProt P61601)
T1 construct: A human full-length cDNA clone was expressed as a protein with an N-terminal His tag; His tag (N); made in house; host or cells: Escherichia coli BL21star(DE3)pLysS (pDEST17 Gateway expression plasmid)
Assay: SEC/MS interaction analysis (size exclusion spin column and mass analysis) with FLJ39196 clone-derived protein
Type: binding
From the text: To analyze the interactions between commonly used drugs and proteins expressed from human full-length cDNA clones while keeping both the proteins and the compounds in non-modified, non-immobilized state, size exclusion chromatography (SEC) and mass analysis were used in combination (FIGS. 1, 2). The specific procedures are shown below.
The compound-protein mixture prepared in step 1 was subjected to chromatography using an SEC column, the compound and the protein were separated by SEC, and the compound that interacted with the bound compound or protein contained in the protein fraction was analyzed using a mass analyzer.
Protein concentrations were measured using BCA Protein Assay (PIERCE), in consideration of the purity calculated by SDS-PAGE.
Mass analysis was performed using LCQ DECA XP (Thermoelectron) or Q-TOFmicro (Micromass), equipped with an ESI probe. The LC pump used was Agilent 1100 (Yokogawa Analytical Systems), and the autosampler used was HTC-PAL (CTC Analytics) equipped with a cooling stacker.
In the SEC method using 384-well spin columns, Unifilter 100 (Whatman), packed with 10 μL (dry volume) of Bio-Gel P6 (BIO-RAD) and swollen with milliQ water, was used as the SEC column. 13.3 μL of a protein-free reference standard or a 25 μM protein standard and 0.7 μL of a multiplied liquid comprising 25 μM of each pharmaceutical compound (5% DMSO aqueous solution) were mixed; 9 μL of this mixture was aliquoted into the SEC spin columns. The SEC spin column was mounted on an acetonitrile-aliquoted 384-well U-bottom plate and centrifuged; the SEC spin column filtrate, which is a protein fraction, was retrieved in 50% acetonitrile. The protein precipitate produced by the acetonitrile was removed via centrifugation and filtration for deproteinization; the resulting filtrate was concentrated by centrifugation and re-dissolved in 10 μL of 50% methanol to obtain a mass analysis sample. The mobile phase supplied to the mass analyzer was 0.1% formic acid/50% methanol solution in the positive ion mode, and 0.1% ammonia/50% methanol solution in the negative ion mode; these mobile phases were used at a flow rate of 40 μL/min. 2-μL of mass analysis samples were injected using an autosampler at 2-minute intervals; the mass spectral intensity of the compound was measured to obtain the spectral intensity of the pharmaceutical compound contained in the SEC spin column filtrate (protein fraction eluted from SEC).

[1] = protein 0 μM (protein-free reference), compound 1 μM
[2] = protein 0 μM (protein-free reference), compound 10 μM
[3] = protein 0 μM (protein-free reference), compound 100 μM
[4] = protein 0 μM (protein-free reference), compound 250 μM
[5] = protein 23.75 μM, compound 1 μM
[6] = protein 23.75 μM, compound 10 μM
[7] = protein 23.75 μM, compound 100 μM
[8] = protein 23.75 μM, compound 250 μM
[9] = protein 47.5 μM, compound 10 μM
[10] = protein 47.5 μM, compound 100 μM
[11] = protein 47.5 μM, compound 250 μM

Compound: CC(O)(CS(=O)(=O)c1ccc(F)cc1)C(=O)Nc1ccc(C#N)c(C(F)(F)F)c1 (centres unmarked) [Bicaltamide]
spectral intensity of the compound in the SEC spin column filtrate (protein fraction) [1]: 196020
spectral intensity of the compound in the SEC spin column filtrate (protein fraction) [2]: 269681
spectral intensity of the compound in the SEC spin column filtrate (protein fraction) [3]: 3889442
spectral intensity of the compound in the SEC spin column filtrate (protein fraction) [4]: 1804944
spectral intensity of the compound in the SEC spin column filtrate (protein fraction) [5]: 264437
spectral intensity of the compound in the SEC spin column filtrate (protein fraction) [6]: 914364
spectral intensity of the compound in the SEC spin column filtrate (protein fraction) [7]: 18349511
spectral intensity of the compound in the SEC spin column filtrate (protein fraction) [8]: 53664833
spectral intensity of the compound in the SEC spin column filtrate (protein fraction) (protein 47.5 μM, compound 1 μM): 390946
spectral intensity of the compound in the SEC spin column filtrate (protein fraction) [9]: 4168309
spectral intensity of the compound in the SEC spin column filtrate (protein fraction) [10]: 24933110
spectral intensity of the compound in the SEC spin column filtrate (protein fraction) [11]: 112816687

Compound: Dihydroergotoxine mesylate
spectral intensity of the compound in the SEC spin column filtrate (protein fraction) (measured mass range m/z 564.1-565.1, protein 0 μM (protein-free reference), compound 1 μM): 25150786
spectral intensity of the compound in the SEC spin column filtrate (protein fraction) (measured mass range m/z 564.1-565.1, protein 0 μM (protein-free reference), compound 10 μM): 29311635
spectral intensity of the compound in the SEC spin column filtrate (protein fraction) (measured mass range m/z 564.1-565.1, protein 0 μM (protein-free reference), compound 100 μM): 76261189
spectral intensity of the compound in the SEC spin column filtrate (protein fraction) (measured mass range m/z 564.1-565.1, protein 0 μM (protein-free reference), compound 250 μM): 326128137
spectral intensity of the compound in the SEC spin column filtrate (protein fraction) (measured mass range m/z 564.1-565.1, protein 23.75 μM, compound 1 μM): 19680823
spectral intensity of the compound in the SEC spin column filtrate (protein fraction) (measured mass range m/z 564.1-565.1, protein 23.75 μM, compound 10 μM): 36914079
spectral intensity of the compound in the SEC spin column filtrate (protein fraction) (measured mass range m/z 564.1-565.1, protein 23.75 μM, compound 100 μM): 177369018
spectral intensity of the compound in the SEC spin column filtrate (protein fraction) (measured mass range m/z 564.1-565.1, protein 23.75 μM, compound 250 μM): 232715490
spectral intensity of the compound in the SEC spin column filtrate (protein fraction) (measured mass range m/z 564.1-565.1, protein 47.5 μM, compound 1 μM): 16556794
spectral intensity of the compound in the SEC spin column filtrate (protein fraction) (measured mass range m/z 564.1-565.1, protein 47.5 μM, compound 10 μM): 45033425
spectral intensity of the compound in the SEC spin column filtrate (protein fraction) (measured mass range m/z 564.1-565.1, protein 47.5 μM, compound 100 μM): 221983211
spectral intensity of the compound in the SEC spin column filtrate (protein fraction) (measured mass range m/z 564.1-565.1, protein 47.5 μM, compound 250 μM): 530510575
spectral intensity of the compound in the SEC spin column filtrate (protein fraction) (measured mass range m/z 577.9-578.9, protein 0 μM (protein-free reference), compound 1 μM): 17036968
spectral intensity of the compound in the SEC spin column filtrate (protein fraction) (measured mass range m/z 577.9-578.9, protein 0 μM (protein-free reference), compound 10 μM): 25343556
spectral intensity of the compound in the SEC spin column filtrate (protein fraction) (measured mass range m/z 577.9-578.9, protein 0 μM (protein-free reference), compound 100 μM): 62894601
spectral intensity of the compound in the SEC spin column filtrate (protein fraction) (measured mass range m/z 577.9-578.9, protein 0 μM (protein-free reference), compound 250 μM): 234871658
spectral intensity of the compound in the SEC spin column filtrate (protein fraction) (measured mass range m/z 577.9-578.9, protein 23.75 μM, compound 1 μM): 25890358
spectral intensity of the compound in the SEC spin column filtrate (protein fraction) (measured mass range m/z 577.9-578.9, protein 23.75 μM, compound 100 μM): 421344902
spectral intensity of the compound in the SEC spin column filtrate (protein fraction) (measured mass range m/z 577.9-578.9, protein 23.75 μM, compound 250 μM): 408003600
spectral intensity of the compound in the SEC spin column filtrate (protein fraction) (measured mass range m/z 577.9-578.9, protein 47.5 μM, compound 1 μM): 31988946
spectral intensity of the compound in the SEC spin column filtrate (protein fraction) (measured mass range m/z 577.9-578.9, protein 47.5 μM, compound 10 μM): 207450982
spectral intensity of the compound in the SEC spin column filtrate (protein fraction) (measured mass range m/z 577.9-578.9, protein 47.5 μM, compound 100 μM): 908698063
spectral intensity of the compound in the SEC spin column filtrate (protein fraction) (measured mass range m/z 577.9-578.9, protein 47.5 μM, compound 250 μM): 1265975868
spectral intensity of the compound in the SEC spin column filtrate (protein fraction) (measured mass range m/z 611.7-612.7, protein 0 μM (protein-free reference), compound 1 μM): 18486648
spectral intensity of the compound in the SEC spin column filtrate (protein fraction) (measured mass range m/z 611.7-612.7, protein 0 μM (protein-free reference), compound 10 μM): 24024699
spectral intensity of the compound in the SEC spin column filtrate (protein fraction) (measured mass range m/z 611.7-612.7, protein 0 μM (protein-free reference), compound 100 μM): 30737736
spectral intensity of the compound in the SEC spin column filtrate (protein fraction) (measured mass range m/z 611.7-612.7, protein 0 μM (protein-free reference), compound 250 μM): 58888872
spectral intensity of the compound in the SEC spin column filtrate (protein fraction) (measured mass range m/z 611.7-612.7, protein 23.75 μM, compound 1 μM): 35126832
spectral intensity of the compound in the SEC spin column filtrate (protein fraction) (measured mass range m/z 611.7-612.7, protein 23.75 μM, compound 10 μM): 106708813
spectral intensity of the compound in the SEC spin column filtrate (protein fraction) (measured mass range m/z 611.7-612.7, protein 23.75 μM, compound 100 μM): 397014202
spectral intensity of the compound in the SEC spin column filtrate (protein fraction) (measured mass range m/z 611.7-612.7, protein 23.75 μM, compound 250 μM): 267260198
spectral intensity of the compound in the SEC spin column filtrate (protein fraction) (measured mass range m/z 611.7-612.7, protein 47.5 μM, compound 1 μM): 40595551
spectral intensity of the compound in the SEC spin column filtrate (protein fraction) (measured mass range m/z 611.7-612.7, protein 47.5 μM, compound 10 μM): 194133547
spectral intensity of the compound in the SEC spin column filtrate (protein fraction) (measured mass range m/z 611.7-612.7, protein 47.5 μM, compound 100 μM): 931095764
spectral intensity of the compound in the SEC spin column filtrate (protein fraction) (measured mass range m/z 611.7-612.7, protein 47.5 μM, compound 250 μM): 1112309560

Compound: CC(NCCC(c1ccccc1)c1ccccc1)c1ccccc1 (centres unmarked) [Fendiline]
spectral intensity of the compound in the SEC spin column filtrate (protein fraction) [1]: 18341826
spectral intensity of the compound in the SEC spin column filtrate (protein fraction) [2]: 21106520
spectral intensity of the compound in the SEC spin column filtrate (protein fraction) [3]: 134902492
spectral intensity of the compound in the SEC spin column filtrate (protein fraction) [4]: 315067466
spectral intensity of the compound in the SEC spin column filtrate (protein fraction) [5]: 15884361
spectral intensity of the compound in the SEC spin column filtrate (protein fraction) [6]: 18323956
spectral intensity of the compound in the SEC spin column filtrate (protein fraction) [7]: 118321460
spectral intensity of the compound in the SEC spin column filtrate (protein fraction) [8]: 396979100
spectral intensity of the compound in the SEC spin column filtrate (protein fraction) (protein 47.5 μM, compound 1 μM): 24572438
spectral intensity of the compound in the SEC spin column filtrate (protein fraction) [9]: 26691498
spectral intensity of the compound in the SEC spin column filtrate (protein fraction) [10]: 256481478
spectral intensity of the compound in the SEC spin column filtrate (protein fraction) [11]: 565679716

The next lines start with the values.

spectral intensity of the compound in the SEC spin column filtrate (protein fraction) [1]: 9581826
spectral intensity of the compound in the SEC spin column filtrate (protein fraction) [2]: 14048756
spectral intensity of the compound in the SEC spin column filtrate (protein fraction) [3]: 358168208
spectral intensity of the compound in the SEC spin column filtrate (protein fraction) [4]: 1566782176
spectral intensity of the compound in the SEC spin column filtrate (protein fraction) [5]: 7408112
spectral intensity of the compound in the SEC spin column filtrate (protein fraction) [6]: 35655439
spectral intensity of the compound in the SEC spin column filtrate (protein fraction) [7]: 771184721
spectral intensity of the compound in the SEC spin column filtrate (protein fraction) [8]: 1841002486
spectral intensity of the compound in the SEC spin column filtrate (protein fraction) (protein 47.5 μM, compound 1 μM): 7866658
spectral intensity of the compound in the SEC spin column filtrate (protein fraction) [9]: 40680909
spectral intensity of the compound in the SEC spin column filtrate (protein fraction) [10]: 1156825217
spectral intensity of the compound in the SEC spin column filtrate (protein fraction) [11]: 1990085657
Compound: CC(C)COCC(CN(Cc1ccccc1)c1ccccc1)N1CCCC1 (centres unmarked) [Bepridil]

spectral intensity of the compound in the SEC spin column filtrate (protein fraction) [1]: 3754698
spectral intensity of the compound in the SEC spin column filtrate (protein fraction) [2]: 2330594
spectral intensity of the compound in the SEC spin column filtrate (protein fraction) [3]: 7909682
spectral intensity of the compound in the SEC spin column filtrate (protein fraction) [4]: 10553153
spectral intensity of the compound in the SEC spin column filtrate (protein fraction) [5]: 3790373
spectral intensity of the compound in the SEC spin column filtrate (protein fraction) [6]: 6024709
spectral intensity of the compound in the SEC spin column filtrate (protein fraction) [7]: 124641622
spectral intensity of the compound in the SEC spin column filtrate (protein fraction) [8]: 157539770
spectral intensity of the compound in the SEC spin column filtrate (protein fraction) (protein 47.5 μM, compound 1 μM): 3014448
spectral intensity of the compound in the SEC spin column filtrate (protein fraction) [9]: 17385466
spectral intensity of the compound in the SEC spin column filtrate (protein fraction) [10]: 122918120
spectral intensity of the compound in the SEC spin column filtrate (protein fraction) [11]: 666932700
Compound: O=C(c1ccc(OCCN2CCCCC2)cc1)c1c(-c2ccc(O)cc2)sc2cc(O)ccc12 [Raloxifene hydrochloride]
